Patent EP4737454A1, “GLP-1 RECEPTOR AGONIST, AND PREPARATION METHOD THEREFOR AND USE THEREOF” (Wayne Biotechnology Co., Ltd., priority 2023, dated 2025)

Molecular target: Human GLP-1R (Homo sapiens, UniProt P43220)
Experiment: cAMP level determination in human GLP-1R stably transfected HEK293T cells (HTRF cAMP kit)
Type: cell-based
Details: 37°C 30 min
Description: Human GLP-1R HEK293T stably transfected cells were digested with trypsin, terminated with DMEM total (without p/s), centrifuged and washed twice with 1X Stimulation buffer, then resuspended in 1X stimulation buffer and counted. The cells were then prepared as a 1 Million/mL cell suspension in stimulation buffer. Compound powder was first prepared as a 10 mM stock solution in DMSO, then diluted to 2 mM with DMSO, and further prepared as 2X compound in 1X stimulation buffer (Cisbio kit buffer with freshly added IBMX at a final concentration of 0.5 mM). The top dose final concentration was 2000 nM, with a final DMSO concentration of 0.2%, diluted in a 1:3 gradient for 11 gradients.
According to the layout, 5 µl of compound was added to each well; Min wells contained 100 nM GLP-1, and Max wells contained 0.2% DMSO in 1X stimulation buffer. 5 µl of cell suspension was added to each well, centrifuged at 300 rpm at room temperature for 1 min, then incubated at 37°C for 30 min. 2X cAMP standards were prepared in 1X Stimulation buffer, with a top final concentration of 2.8 µM, diluted in a 1:3 gradient for 12 doses. According to the layout, 10 µl was added to each well. Finally, d2 and antibody were diluted 20-fold in 1X Detection buffer (Cisbio kit buffer), and 5 µl of each was added to each well according to the layout. After centrifugation at 300 rpm at room temperature for 1 min, the plate was incubated at room temperature for 2 hr.
Stimulation% was calculated based on Min and Max readings (665nm/615nm ratio) using the formula: 100*(ratio Max well - ratio test well)/(ratio Max well - ratio Min well). The cAMP concentration in each test well was derived from the cAMP standard curve, and the data was analyzed using GraphPad Prism 9 to plot four-parameter fit curves and calculate EC50 values using the formula: Y=Bottom + (Top-Bottom)/(1+10^((LogEC50-X)*HillSlope)). Table 1: cAMP Level Determination in Human GLP-1R Stably Transfected HEK293T Cells

Chain of Human GLP-1R (P43220 24-463): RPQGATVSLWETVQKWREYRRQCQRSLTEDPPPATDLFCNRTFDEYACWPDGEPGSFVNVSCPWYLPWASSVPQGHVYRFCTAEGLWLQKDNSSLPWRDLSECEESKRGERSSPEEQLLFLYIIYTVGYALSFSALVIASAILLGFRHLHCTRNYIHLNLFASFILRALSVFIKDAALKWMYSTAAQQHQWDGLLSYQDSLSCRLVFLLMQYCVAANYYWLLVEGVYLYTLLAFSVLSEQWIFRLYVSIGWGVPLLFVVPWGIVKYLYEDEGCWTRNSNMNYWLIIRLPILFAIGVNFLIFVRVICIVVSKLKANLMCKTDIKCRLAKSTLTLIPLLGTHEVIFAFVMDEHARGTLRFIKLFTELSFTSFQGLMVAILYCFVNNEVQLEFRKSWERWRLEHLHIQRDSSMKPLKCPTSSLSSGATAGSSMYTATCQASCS

`Cc1cc(-n2nc3c(c2-n2ccn(-c4ccc(OC(F)(F)F)c(C#N)c4)c2=O)[C@H](C)N(C(=O)c2cc4cc(C5CCOC(C)(C)C5)ccc4n2[C@@]2(c4nc(=O)o[nH]4)C[C@@H]2C)CC3)cc(C)c1F` (stereo partly shown) [Compound 94] and `Cc1cc(-n2nc3c(c2-n2ccn(-c4ccc(C#N)c(OC(F)(F)F)c4)c2=O)[C@H](C)N(C(=O)c2cc4cc(C5CCOC(C)(C)C5)ccc4n2[C@@]2(c4nc(=O)o[nH]4)C[C@@H]2C)CC3)cc(C)c1F` (stereo partly shown) [Compound 78] are within 1.5-fold of each other in EC50: 21.6 nM for the first, 20.3 nM for the second.

Compared with `Cc1cc(-n2nc3c(c2-n2ccn(-c4ccc(N(C)C5CC5)c(C(F)(F)F)c4)c2=O)[C@H](C)N(C(=O)c2cc4cc(C5CCOC(C)(C)C5)ccc4n2[C@@]2(c4nc(=O)o[nH]4)C[C@@H]2C)CC3)cc(C)c1F` (stereo partly shown) [Compound 64], `Cc1cc(-n2nc3c(c2-n2ccn(-c4ccc(N(C)C5CC5)cc4C(F)(F)F)c2=O)[C@H](C)N(C(=O)c2cc4cc(C5CCOC(C)(C)C5)ccc4n2[C@@]2(c4nc(=O)o[nH]4)C[C@@H]2C)CC3)cc(C)c1F` (stereo partly shown) [Compound 65] is 22-fold higher in EC50: 29 nM for the first, 648 nM for the second.

`CCc1cc(-n2ccn(-c3c4c(nn3-c3cc(C)c(F)c(C)c3)CCN(C(=O)c3cc5cc([C@H]6CCOC(C)(C)C6)ccc5n3[C@@]3(c5nc(=O)o[nH]5)C[C@@H]3C)[C@H]4C)c2=O)ccc1C(=O)N(C)C1CC1` [Compound 8] and `Cc1cc(-n2nc3c(c2-n2ccn(-c4ccc(C(=O)N(C)C5CC5)c(C#N)c4)c2=O)[C@H](C)N(C(=O)c2cc4cc([C@H]5CCOC(C)(C)C5)ccc4n2[C@@]2(c4nc(=O)o[nH]4)C[C@@H]2C)CC3)cc(C)c1F` [Compound 9] are within 1.5-fold of each other in EC50: 4.75 nM for the first, 4.85 nM for the second.

First: Cc1cc(-n2nc3c(c2-n2ccn(-c4ccc(C(=O)N(C)C5CC5)cc4)c2=O)[C@H](C)N(C(=O)c2cc4cc([C@H]5CCOC(C)(C)C5)ccc4n2[C@@]2(c4nc(=O)o[nH]4)C[C@@H]2C)CC3)cc(C)c1F [Compound 10]
Second: Cc1cc(-n2nc3c(c2-n2ccn(-c4ccc(C(=O)N(C)C5CC5)cn4)c2=O)[C@H](C)N(C(=O)c2cc4cc(C5CCOC(C)(C)C5)ccc4n2[C@@]2(c4nc(=O)o[nH]4)C[C@@H]2C)CC3)cc(C)c1F (stereo partly shown) [Compound 29]
The EC50 of the first is 12-fold lower: 8.55 nM for the first, 102 nM for the second. The first is the more potent here.

`C[C@H]1c2c(nn(-c3ccc(F)c(C4CC4)c3)c2-n2ccn(-c3ccc4c(cnn4C)c3F)c2=O)CCN1C(=O)c1cc2cc([C@@H]3CCOC(C)(C)C3)ccc2n1[C@@]1(c2nc(=O)o[nH]2)C[C@@H]1C` [Compound 1a] and `C[C@H]1c2c(nn(-c3ccc(F)c(OC(F)(F)F)c3)c2-n2ccn(-c3ccc4c(cnn4C)c3F)c2=O)CCN1C(=O)c1cc2cc(C3CCOC(C)(C)C3)ccc2n1[C@@]1(c2nc(=O)o[nH]2)C[C@@H]1C` (stereo partly shown) [Compound 4] are within 1.5-fold of each other in EC50: 35.5 nM for the first, 34.3 nM for the second.

`Cc1cc(-n2nc3c(c2-n2ccn(-c4ccc(C#N)c(C)c4F)c2=O)[C@H](C)N(C(=O)c2cc4cc(C5CCOC(C)(C)C5)ccc4n2[C@@]2(c4nc(=O)o[nH]4)C[C@@H]2C)CC3)cc(C)c1F` (stereo partly shown) [Compound 96] and `Cc1cc(-n2nc3c(c2-n2ccn(-c4ccc(C#N)c(Cl)c4F)c2=O)[C@H](C)N(C(=O)c2cc4cc(C5CCOC(C)(C)C5)ccc4n2[C@@]2(c4nc(=O)o[nH]4)C[C@@H]2C)CC3)cc(C)c1F` (stereo partly shown) [Compound 97] are within 1.5-fold of each other in EC50: 7.37 nM for the first, 7.84 nM for the second.

First: Cc1cc(-n2nc3c(c2-n2ccn(-c4ccc(C(=O)N(C)C5CC5)c(OC(F)F)c4)c2=O)[C@H](C)N(C(=O)c2cc4cc(C5CCOC(C)(C)C5)ccc4n2[C@@]2(c4nc(=O)o[nH]4)C[C@@H]2C)CC3)cc(C)c1F (stereo partly shown) [Compound 31]
Second: Cc1cc(-n2nc3c(c2-n2ccn(-c4ccc(C(=O)N(C)C5CC5)c(OC(F)(F)F)c4)c2=O)[C@H](C)N(C(=O)c2cc4cc([C@H]5CCOC(C)(C)C5)ccc4n2[C@@]2(c4nc(=O)o[nH]4)C[C@@H]2C)CC3)cc(C)c1F [Compound 12]
The EC50 of the first is 1.6-fold higher: 15.1 nM for the first, 9.58 nM for the second. The second is the more potent here.

First: Cc1cc(-n2nc3c(c2-n2ccn(-c4cnc(C(=O)N(C)C5CC5)nc4)c2=O)[C@H](C)N(C(=O)c2cc4cc(C5CCOC(C)(C)C5)ccc4n2[C@@]2(c4nc(=O)o[nH]4)C[C@@H]2C)CC3)cc(C)c1F (stereo partly shown) [Compound 32]
Second: Cc1cc(-n2nc3c(c2-n2ccn(-c4ccc(C(=O)N(C)C5CC5)nn4)c2=O)[C@H](C)N(C(=O)c2cc4cc(C5CCOC(C)(C)C5)ccc4n2[C@@]2(c4nc(=O)o[nH]4)C[C@@H]2C)CC3)cc(C)c1F (stereo partly shown) [Compound 30]
The EC50 of the first is 2.6-fold lower: 79.7 nM for the first, 206 nM for the second. The first is the more potent here.

Compared with `Cc1cc(-n2nc3c(c2-n2ccn(-c4cc(F)c(C#N)cc4F)c2=O)[C@H](C)N(C(=O)c2cc4cc(C5CCOC(C)(C)C5)ccc4n2[C@@]2(c4nc(=O)o[nH]4)C[C@@H]2C)CC3)cc(C)c1F` (stereo partly shown) [Compound 83], `Cc1cc(-n2nc3c(c2-n2ccn(-c4ccc(C#N)cc4F)c2=O)[C@H](C)N(C(=O)c2cc4cc([C@@H]5CCOC(C)(C)C5)ccc4n2[C@@]2(c4nc(=O)o[nH]4)C[C@@H]2C)CC3)cc(C)c1F` [Compound 81a] is 30-fold higher in EC50: 12.8 nM for the first, 387 nM for the second.

Going from `Cc1cc(-n2nc3c(c2-n2ccn(-c4ccc(C#N)c(C5CC5)c4)c2=O)[C@H](C)N(C(=O)c2cc4cc(C5CCOC(C)(C)C5)ccc4n2[C@@]2(c4nc(=O)o[nH]4)C[C@@H]2C)CC3)cc(C)c1F` (stereo partly shown) [Compound 79] to `Cc1cc(-n2nc3c(c2-n2ccn(-c4ccc(C#N)nc4)c2=O)[C@H](C)N(C(=O)c2cc4cc(C5CCOC(C)(C)C5)ccc4n2[C@@]2(c4nc(=O)o[nH]4)C[C@@H]2C)CC3)cc(C)c1F` (stereo partly shown) [Compound 91], the EC50 rises from 17.8 nM to 38.4 nM (2.2-fold).

Going from `Cc1cc(-n2nc3c(c2-n2ccn(-c4ccc5c(c4)C=CS5(=O)=O)c2=O)[C@H](C)N(C(=O)c2cc4cc([C@@H]5CCOC(C)(C)C5)ccc4n2[C@@]2(c4noc(=O)[nH]4)C[C@@H]2C)CC3)cc(C)c1F` [Compound 62a] to `Cc1cc(-n2nc3c(c2-n2ccn(-c4ccc(N(C)C5CC5)c(Cl)c4)c2=O)[C@H](C)N(C(=O)c2cc4cc([C@H]5CCOC(C)(C)C5)ccc4n2[C@@]2(c4noc(=O)[nH]4)C[C@@H]2C)CC3)cc(C)c1F` [Compound 67b], the EC50 falls from 223 nM to 11.2 nM (20-fold). The second is the more potent here.

Compared with `Cc1cc(-n2nc3c(c2-n2ccn(-c4ccc(C(=O)NC5CC5)cc4)c2=O)[C@H](C)N(C(=O)c2cc4cc(C5CCOC(C)(C)C5)ccc4n2[C@@]2(c4nc(=O)o[nH]4)C[C@@H]2C)CC3)cc(C)c1F` (stereo partly shown) [Compound 46], `Cc1cc(-n2nc3c(c2-n2ccn(-c4ccc(C(=O)N5CCCC5)cc4)c2=O)[C@H](C)N(C(=O)c2cc4cc(C5CCOC(C)(C)C5)ccc4n2[C@@]2(c4nc(=O)o[nH]4)C[C@@H]2C)CC3)cc(C)c1F` (stereo partly shown) [Compound 22] is 1.5-fold lower in EC50: 77.9 nM for the first, 50.7 nM for the second. The second is the more potent here.

First: Cc1cc(C#N)ccc1-n1ccn(-c2c3c(nn2-c2cc(C)c(F)c(C)c2)CCN(C(=O)c2cc4cc(C5CCOC(C)(C)C5)ccc4n2[C@@]2(c4nc(=O)o[nH]4)C[C@@H]2C)[C@H]3C)c1=O (stereo partly shown) [Compound 88]
Second: Cc1cc(-n2nc3c(c2-n2ccn(-c4ccc(N(C)C(=O)C5CC5)cc4Cl)c2=O)[C@H](C)N(C(=O)c2cc4cc([C@H]5CCOC(C)(C)C5)ccc4n2[C@@]2(c4nc(=O)o[nH]4)C[C@@H]2C)CC3)cc(C)c1F [Compound 77]
The EC50 of the first is 33-fold higher: 205 nM for the first, 6.19 nM for the second.

`Cc1cc(-n2nc3c(c2-n2ccn(-c4ccc(C(=O)N(C)C5CC5)c(OCC5CC5)c4)c2=O)[C@H](C)N(C(=O)c2cc4cc(C5CCOC(C)(C)C5)ccc4n2[C@@]2(c4nc(=O)o[nH]4)C[C@@H]2C)CC3)cc(C)c1F` (stereo partly shown) [Compound 43] and `Cc1cc(-n2nc3c(c2-n2ccn(-c4ccc(C(=O)N(C)CC#N)cc4)c2=O)[C@H](C)N(C(=O)c2cc4cc(C5CCOC(C)(C)C5)ccc4n2[C@@]2(c4nc(=O)o[nH]4)C[C@@H]2C)CC3)cc(C)c1F` (stereo partly shown) [Compound 44] are within 1.5-fold of each other in EC50: 13.2 nM for the first, 16.9 nM for the second.
